This note sets out measurements from ChEMBL document CHEMBL1154011, “Discovery and structural analysis of Eph receptor tyrosine kinase inhibitors” (Bioorg Med Chem Lett, 2009).

The source made the active and inactive calls. No cut-off for these calls is given here.

The target in experiment [1] is Bcr/Abl fusion protein (Homo sapiens) (UniProt P00519+P11274). Nature of the experiment: Inhibition of Bcr-Abl expressed in mouse BA/F3 cells. It is filed as cell-based. To be noted: BaF3.
For experiment [2], the target named is Tyrosine-protein kinase ABL1 (Homo sapiens) (UniProt P00519). Kind of experiment: Inhibition of Abl expressed in mouse BA/F3 cells. Format: cell-based. To be noted: BaF3.
The subject of another experiment is BaF3. Kind of experiment: Inhibition of PDGFR expressed in mouse BA/F3 cells. It is filed as cell-based.
Experiment [3] addresses Mast/stem cell growth factor receptor Kit (Homo sapiens) (UniProt P10721). Nature of the experiment: Inhibition of c-kit expressed in mouse BA/F3 cells. It is filed as cell-based. To be noted: BaF3.
Experiment [4] addresses Serine/threonine-protein kinase B-raf (Homo sapiens) (UniProt P15056). Kind of experiment: Inhibition of b-Raf at 100 uM.
Experiment [5] deals with Macrophage colony-stimulating factor 1 receptor (Homo sapiens) (UniProt P07333). Nature of the experiment: Inhibition of CSF1R at 10 uM.
Experiment [6] has as its target Epithelial discoidin domain-containing receptor 1 (Homo sapiens) (UniProt Q08345). Nature of the experiment: Inhibition of DDR1 at 10 uM.
For experiment [7], the target named is Discoidin domain-containing receptor 2 (Homo sapiens) (UniProt Q16832). Kind of experiment: Inhibition of DDR2 at 10 uM.
Experiment [8] addresses Ephrin type-A receptor 2 (Homo sapiens) (UniProt P29317). Nature of the experiment: Inhibition of EphA2 at 10 uM.
The target of experiment [9] is Ephrin type-A receptor 5 (Homo sapiens) (UniProt P54756). Kind of experiment: Inhibition of EphA5 at 10 uM.
Experiment [10] addresses Ephrin type-A receptor 8 (Homo sapiens) (UniProt P29322). Nature of the experiment: Inhibition of EphA8 at 10 uM.
Experiment [11] deals with T1, Ephrin type-B receptor 1 (Homo sapiens) (UniProt P54762).
T1 sequence (whole entry): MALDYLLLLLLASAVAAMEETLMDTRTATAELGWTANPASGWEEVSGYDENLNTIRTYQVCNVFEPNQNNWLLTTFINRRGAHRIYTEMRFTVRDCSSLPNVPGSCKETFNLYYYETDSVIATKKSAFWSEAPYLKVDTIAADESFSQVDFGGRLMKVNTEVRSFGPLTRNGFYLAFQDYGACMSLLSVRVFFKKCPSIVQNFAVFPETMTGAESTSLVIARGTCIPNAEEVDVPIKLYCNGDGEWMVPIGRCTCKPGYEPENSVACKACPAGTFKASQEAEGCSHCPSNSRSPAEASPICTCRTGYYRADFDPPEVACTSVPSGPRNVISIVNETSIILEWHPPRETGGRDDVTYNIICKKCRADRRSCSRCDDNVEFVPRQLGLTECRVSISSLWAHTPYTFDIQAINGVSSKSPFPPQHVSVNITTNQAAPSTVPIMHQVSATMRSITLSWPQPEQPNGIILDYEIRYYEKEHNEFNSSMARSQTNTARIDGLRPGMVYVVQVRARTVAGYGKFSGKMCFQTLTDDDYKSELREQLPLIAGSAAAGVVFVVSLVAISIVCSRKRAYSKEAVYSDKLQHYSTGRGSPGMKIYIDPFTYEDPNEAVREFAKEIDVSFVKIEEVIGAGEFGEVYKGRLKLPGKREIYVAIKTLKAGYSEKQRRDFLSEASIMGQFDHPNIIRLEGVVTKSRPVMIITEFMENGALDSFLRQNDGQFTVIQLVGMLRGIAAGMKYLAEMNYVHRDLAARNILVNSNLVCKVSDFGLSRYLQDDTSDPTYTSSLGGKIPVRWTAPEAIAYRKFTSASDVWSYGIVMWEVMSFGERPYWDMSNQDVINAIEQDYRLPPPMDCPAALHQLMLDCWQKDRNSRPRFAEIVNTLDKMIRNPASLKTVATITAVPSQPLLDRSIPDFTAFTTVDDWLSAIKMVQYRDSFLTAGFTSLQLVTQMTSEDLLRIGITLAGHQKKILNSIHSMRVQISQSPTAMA
Kind of experiment: Inhibition of EphB1 at 10 uM.

Experiment [12] concerns the target Ephrin type-B receptor 2 (Homo sapiens) (UniProt P29323). Kind of experiment: Inhibition of EphB2 at 10 uM.
The target of experiment [13] is Ephrin type-B receptor 3 (Homo sapiens) (UniProt P54753). Kind of experiment: Inhibition of EphB3 at 10 uM.
Experiment [14] concerns the target Tyrosine-protein kinase FRK (Homo sapiens) (UniProt P42685). Kind of experiment: Inhibition of Frk at 10 uM.
Experiment [15] has as its target Mast/stem cell growth factor receptor Kit (Homo sapiens) (UniProt P10721). Nature of the experiment: Inhibition of Kit at 10 uM.
The target of experiment [16] is Tyrosine-protein kinase Lck (Homo sapiens) (UniProt P06239). Nature of the experiment: Inhibition of Lck at 10 uM.
The target in experiment [17] is Mitogen-activated protein kinase 14 (Homo sapiens) (UniProt Q16539). Kind of experiment: Inhibition of p38alpha at 10 uM.
Experiment [18] deals with Mitogen-activated protein kinase 11 (Homo sapiens) (UniProt Q15759). Nature of the experiment: Inhibition of p38beta at 10 uM.
Experiment [19] has as its target Platelet-derived growth factor receptor alpha (Homo sapiens) (UniProt P16234). Kind of experiment: Inhibition of PDGFRalpha at 10 uM.
For experiment [20], the target named is Platelet-derived growth factor receptor beta (Homo sapiens) (UniProt P09619). Kind of experiment: Inhibition of PDGFRbeta at 10 uM.
Experiment [21] concerns the target RAF proto-oncogene serine/threonine-protein kinase (Homo sapiens) (UniProt P04049). Nature of the experiment: Inhibition of RAF1 at 10 uM.
Experiment [22] concerns the target Serine/threonine-protein kinase B-raf (Homo sapiens) (UniProt P15056). Nature of the experiment: Inhibition of Tel fused b-Raf expressed in mouse BA/F3 cells. Format: cell-based. The following applies: BaF3.
In experiment [23] the target is T2, Ephrin type-A receptor 6 (Homo sapiens) (UniProt Q9UF33).
T2 sequence (whole entry): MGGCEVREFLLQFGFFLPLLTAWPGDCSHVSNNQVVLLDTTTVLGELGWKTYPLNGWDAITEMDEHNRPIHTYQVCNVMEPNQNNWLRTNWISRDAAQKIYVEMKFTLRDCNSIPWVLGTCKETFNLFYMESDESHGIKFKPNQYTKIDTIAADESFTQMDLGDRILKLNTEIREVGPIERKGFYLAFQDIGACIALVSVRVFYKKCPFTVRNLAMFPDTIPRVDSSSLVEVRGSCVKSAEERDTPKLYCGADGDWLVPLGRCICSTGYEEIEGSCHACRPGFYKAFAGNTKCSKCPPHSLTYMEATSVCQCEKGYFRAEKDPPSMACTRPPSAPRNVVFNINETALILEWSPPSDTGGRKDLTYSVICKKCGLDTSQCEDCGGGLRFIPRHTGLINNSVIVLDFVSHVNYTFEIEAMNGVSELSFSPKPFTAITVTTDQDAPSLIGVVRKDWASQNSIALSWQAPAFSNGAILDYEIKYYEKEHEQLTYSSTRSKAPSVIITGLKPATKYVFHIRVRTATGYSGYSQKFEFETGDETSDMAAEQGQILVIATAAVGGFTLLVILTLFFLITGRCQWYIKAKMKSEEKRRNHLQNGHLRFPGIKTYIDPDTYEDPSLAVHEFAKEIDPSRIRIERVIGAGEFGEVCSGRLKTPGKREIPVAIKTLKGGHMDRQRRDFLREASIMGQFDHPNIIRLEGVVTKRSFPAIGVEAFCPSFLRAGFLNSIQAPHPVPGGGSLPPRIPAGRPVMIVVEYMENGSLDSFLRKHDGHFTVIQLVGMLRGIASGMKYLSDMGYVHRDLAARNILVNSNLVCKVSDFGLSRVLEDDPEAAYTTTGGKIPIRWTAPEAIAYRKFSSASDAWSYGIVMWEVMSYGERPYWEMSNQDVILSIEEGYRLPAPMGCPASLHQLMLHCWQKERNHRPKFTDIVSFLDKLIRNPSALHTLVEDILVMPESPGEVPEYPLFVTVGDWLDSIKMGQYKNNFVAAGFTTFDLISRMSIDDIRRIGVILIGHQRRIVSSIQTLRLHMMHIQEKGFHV
Nature of the experiment: Inhibition of EphA6 at 10 uM.

Experiment [24] concerns the target Ephrin type-A receptor 7 (Homo sapiens) (UniProt Q15375). Nature of the experiment: Inhibition of EphA7 at 10 uM.
For experiment [25], the target named is Fibroblast growth factor receptor 2 (Homo sapiens) (UniProt P21802). Nature of the experiment: Inhibition of FGFR2 expressed in mouse BA/F3 cells. It is filed as cell-based. The following applies: BaF3.
For experiment [26], the target named is Fibroblast growth factor receptor 3 (Homo sapiens) (UniProt P22607). Nature of the experiment: Inhibition of FGFR3 expressed in mouse BA/F3 cells. It is filed as cell-based. To be noted: BaF3.
For experiment [27], the target named is Fibroblast growth factor receptor 4 (Homo sapiens) (UniProt P22455). Nature of the experiment: Inhibition of FGFR4 expressed in mouse BA/F3 cells. The following applies: BaF3. Format: cell-based.

Chain of Ephrin type-A receptor 7 (Homo sapiens) (Q15375 28-998 limits assumed): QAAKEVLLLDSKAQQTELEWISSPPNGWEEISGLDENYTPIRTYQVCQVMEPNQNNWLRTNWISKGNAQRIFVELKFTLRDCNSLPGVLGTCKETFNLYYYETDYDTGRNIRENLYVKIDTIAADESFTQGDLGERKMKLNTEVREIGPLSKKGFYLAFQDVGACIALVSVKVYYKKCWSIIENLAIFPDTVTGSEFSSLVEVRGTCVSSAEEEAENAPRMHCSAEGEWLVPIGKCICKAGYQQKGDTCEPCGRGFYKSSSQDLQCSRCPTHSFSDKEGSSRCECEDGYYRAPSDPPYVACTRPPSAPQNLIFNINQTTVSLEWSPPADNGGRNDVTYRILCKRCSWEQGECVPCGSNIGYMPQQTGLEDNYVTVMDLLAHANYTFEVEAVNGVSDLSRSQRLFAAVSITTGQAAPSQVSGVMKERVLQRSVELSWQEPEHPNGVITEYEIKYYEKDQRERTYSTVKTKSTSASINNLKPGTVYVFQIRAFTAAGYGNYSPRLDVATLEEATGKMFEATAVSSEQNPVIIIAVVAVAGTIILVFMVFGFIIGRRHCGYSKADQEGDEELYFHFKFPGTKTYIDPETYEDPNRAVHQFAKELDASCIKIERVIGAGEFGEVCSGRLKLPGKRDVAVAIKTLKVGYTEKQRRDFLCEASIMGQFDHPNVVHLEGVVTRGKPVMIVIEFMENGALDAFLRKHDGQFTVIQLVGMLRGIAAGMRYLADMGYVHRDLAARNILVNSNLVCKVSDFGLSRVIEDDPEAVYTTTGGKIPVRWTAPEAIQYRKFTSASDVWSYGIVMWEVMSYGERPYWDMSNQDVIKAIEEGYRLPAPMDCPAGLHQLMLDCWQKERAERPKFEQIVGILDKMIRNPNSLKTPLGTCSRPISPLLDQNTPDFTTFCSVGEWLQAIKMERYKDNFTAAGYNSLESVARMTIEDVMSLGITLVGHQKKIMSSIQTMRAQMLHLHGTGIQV
Chain of Tyrosine-protein kinase ABL1 (Homo sapiens) (P00519 whole entry): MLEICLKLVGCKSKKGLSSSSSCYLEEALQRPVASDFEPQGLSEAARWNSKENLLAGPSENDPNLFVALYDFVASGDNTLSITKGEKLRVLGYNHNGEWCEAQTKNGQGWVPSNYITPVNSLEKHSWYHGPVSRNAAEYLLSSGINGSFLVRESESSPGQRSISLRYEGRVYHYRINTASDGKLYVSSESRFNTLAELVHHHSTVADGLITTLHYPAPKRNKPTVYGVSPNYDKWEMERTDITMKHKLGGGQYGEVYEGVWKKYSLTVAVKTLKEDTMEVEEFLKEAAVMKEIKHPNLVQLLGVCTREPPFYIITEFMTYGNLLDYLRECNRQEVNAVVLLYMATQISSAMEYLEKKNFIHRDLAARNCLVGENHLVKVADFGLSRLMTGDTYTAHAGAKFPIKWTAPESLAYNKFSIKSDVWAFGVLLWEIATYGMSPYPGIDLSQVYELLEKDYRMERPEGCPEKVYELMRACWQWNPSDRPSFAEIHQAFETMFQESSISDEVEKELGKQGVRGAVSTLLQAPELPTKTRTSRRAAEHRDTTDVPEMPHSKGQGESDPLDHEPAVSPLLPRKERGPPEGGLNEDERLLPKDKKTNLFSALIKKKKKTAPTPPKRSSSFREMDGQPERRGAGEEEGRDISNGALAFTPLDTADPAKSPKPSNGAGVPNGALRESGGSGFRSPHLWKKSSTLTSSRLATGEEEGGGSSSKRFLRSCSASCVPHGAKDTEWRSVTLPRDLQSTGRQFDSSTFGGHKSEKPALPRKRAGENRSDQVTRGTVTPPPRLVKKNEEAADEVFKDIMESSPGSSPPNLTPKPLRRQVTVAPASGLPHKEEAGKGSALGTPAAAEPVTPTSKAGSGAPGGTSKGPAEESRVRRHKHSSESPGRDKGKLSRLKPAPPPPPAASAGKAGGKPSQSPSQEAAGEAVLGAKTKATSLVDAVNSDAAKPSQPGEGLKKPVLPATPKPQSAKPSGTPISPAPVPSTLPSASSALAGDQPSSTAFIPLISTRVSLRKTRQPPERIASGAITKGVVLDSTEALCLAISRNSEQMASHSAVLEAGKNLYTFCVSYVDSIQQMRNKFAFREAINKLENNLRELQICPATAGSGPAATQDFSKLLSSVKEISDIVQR
Chain of Mast/stem cell growth factor receptor Kit (Homo sapiens) (P10721 whole entry): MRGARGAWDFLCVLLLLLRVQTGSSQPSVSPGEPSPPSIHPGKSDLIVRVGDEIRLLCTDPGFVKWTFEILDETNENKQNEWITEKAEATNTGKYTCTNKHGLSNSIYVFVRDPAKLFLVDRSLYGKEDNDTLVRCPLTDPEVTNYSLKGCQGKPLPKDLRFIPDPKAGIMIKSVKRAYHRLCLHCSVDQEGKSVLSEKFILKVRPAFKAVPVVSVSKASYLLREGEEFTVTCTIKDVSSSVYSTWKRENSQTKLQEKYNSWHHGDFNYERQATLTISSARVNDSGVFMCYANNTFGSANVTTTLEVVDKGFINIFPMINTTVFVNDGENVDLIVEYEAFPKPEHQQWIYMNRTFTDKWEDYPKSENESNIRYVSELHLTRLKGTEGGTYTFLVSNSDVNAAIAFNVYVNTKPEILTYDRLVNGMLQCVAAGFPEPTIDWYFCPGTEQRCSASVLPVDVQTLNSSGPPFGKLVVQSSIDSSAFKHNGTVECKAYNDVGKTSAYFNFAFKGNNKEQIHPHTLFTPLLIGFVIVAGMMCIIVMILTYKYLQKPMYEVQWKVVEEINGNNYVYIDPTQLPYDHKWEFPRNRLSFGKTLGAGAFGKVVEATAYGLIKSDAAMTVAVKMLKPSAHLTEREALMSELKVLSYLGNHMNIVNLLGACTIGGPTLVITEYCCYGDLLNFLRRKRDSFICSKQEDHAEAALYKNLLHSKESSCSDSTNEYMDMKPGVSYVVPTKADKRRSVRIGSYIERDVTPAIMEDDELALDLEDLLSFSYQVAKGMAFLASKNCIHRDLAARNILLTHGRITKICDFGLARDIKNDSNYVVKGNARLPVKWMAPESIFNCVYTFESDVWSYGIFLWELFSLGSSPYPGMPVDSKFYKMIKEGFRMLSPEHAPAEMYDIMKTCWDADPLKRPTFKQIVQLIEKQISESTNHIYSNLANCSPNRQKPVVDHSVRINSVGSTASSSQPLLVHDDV
Chain of Serine/threonine-protein kinase B-raf (Homo sapiens) (P15056 whole entry, the tested form may be a part): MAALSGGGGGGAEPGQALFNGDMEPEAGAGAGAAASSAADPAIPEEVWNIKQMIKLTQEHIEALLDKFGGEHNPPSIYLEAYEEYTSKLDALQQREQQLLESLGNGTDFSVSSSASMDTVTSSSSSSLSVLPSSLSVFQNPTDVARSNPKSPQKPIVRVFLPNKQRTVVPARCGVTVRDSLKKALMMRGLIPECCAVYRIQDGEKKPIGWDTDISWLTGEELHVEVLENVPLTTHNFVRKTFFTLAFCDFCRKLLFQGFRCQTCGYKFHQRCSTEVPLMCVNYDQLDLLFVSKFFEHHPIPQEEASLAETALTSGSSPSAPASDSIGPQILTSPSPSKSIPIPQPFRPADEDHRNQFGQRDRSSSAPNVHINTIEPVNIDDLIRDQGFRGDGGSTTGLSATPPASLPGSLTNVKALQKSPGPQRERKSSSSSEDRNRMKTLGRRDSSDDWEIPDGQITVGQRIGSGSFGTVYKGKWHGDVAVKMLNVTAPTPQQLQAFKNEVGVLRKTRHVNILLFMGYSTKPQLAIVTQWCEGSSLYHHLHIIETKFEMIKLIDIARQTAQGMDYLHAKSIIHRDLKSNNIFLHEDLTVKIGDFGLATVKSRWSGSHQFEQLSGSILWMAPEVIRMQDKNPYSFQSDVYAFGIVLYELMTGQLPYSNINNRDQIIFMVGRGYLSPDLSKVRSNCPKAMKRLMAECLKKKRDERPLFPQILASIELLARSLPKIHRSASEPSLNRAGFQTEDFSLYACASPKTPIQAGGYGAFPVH
Chain of Ephrin type-A receptor 8 (Homo sapiens) (P29322 whole entry): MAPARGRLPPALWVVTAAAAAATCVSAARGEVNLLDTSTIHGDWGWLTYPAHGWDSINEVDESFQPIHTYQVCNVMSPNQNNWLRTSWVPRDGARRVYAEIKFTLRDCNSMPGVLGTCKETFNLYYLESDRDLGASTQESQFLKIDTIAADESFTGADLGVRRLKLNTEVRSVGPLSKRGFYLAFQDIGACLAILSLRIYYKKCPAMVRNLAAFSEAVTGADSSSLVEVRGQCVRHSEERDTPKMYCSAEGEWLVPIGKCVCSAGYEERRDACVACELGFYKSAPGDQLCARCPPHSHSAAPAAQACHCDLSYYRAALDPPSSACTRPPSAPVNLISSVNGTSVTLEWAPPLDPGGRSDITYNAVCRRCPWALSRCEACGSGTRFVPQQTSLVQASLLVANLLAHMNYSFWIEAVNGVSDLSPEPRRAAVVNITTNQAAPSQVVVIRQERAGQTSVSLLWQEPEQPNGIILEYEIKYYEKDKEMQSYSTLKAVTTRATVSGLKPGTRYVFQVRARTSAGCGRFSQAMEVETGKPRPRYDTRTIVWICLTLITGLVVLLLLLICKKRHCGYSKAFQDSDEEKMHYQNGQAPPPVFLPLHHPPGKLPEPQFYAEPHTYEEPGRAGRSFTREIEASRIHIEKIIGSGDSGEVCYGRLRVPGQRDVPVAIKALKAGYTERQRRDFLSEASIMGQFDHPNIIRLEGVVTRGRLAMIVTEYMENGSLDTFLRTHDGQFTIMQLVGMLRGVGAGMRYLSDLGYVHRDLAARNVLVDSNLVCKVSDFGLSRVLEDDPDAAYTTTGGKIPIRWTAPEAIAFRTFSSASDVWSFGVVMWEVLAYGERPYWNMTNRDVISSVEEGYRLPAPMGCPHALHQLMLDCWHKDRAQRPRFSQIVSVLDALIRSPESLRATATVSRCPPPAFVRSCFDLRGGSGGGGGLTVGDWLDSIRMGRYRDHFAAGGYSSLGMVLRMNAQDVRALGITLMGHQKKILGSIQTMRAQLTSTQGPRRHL

For the compound `CCN1CCN(Cc2ccc(NC(=O)c3ccc(C)c(NC(=O)c4cncc(-c5cccs5)c4)c3)cc2C(F)(F)F)CC1`, the inhibition result (in [1]; in experiment [2]; with BaF3; in [3]; in experiment [4]; in experiment [5]) was “Active” throughout. The inhibition result in experiment [6], in [7], in experiment [8], in [9], in experiment [10] and in experiment [11] was “Active” throughout. The inhibition result in experiment [12], in [13], in [14], in experiment [15], in experiment [16] and in experiment [17] was “Active” throughout. Also, the inhibition result in [18], in experiment [19], in experiment [20] and in experiment [21] was “Active” throughout.

As for `Cc1ccc(C(=O)Nc2cccc(C(F)(F)F)c2)cc1Nc1cncc(C(N)=O)c1`, the inhibition entry in experiment [11], in experiment [22], in [23] and in [24] was “inactive” in each case.

As for `Cc1cn(-c2cc(NC(=O)c3ccc(C)c(NC(=O)c4ccno4)c3)cc(C(F)(F)F)c2)cn1`, the inhibition entry in experiment [11], in [22], in [23] and in experiment [24] was “inactive” in each case.

For the compound `Cc1ccc(C(=O)Nc2cccc(C(F)(F)F)c2)cc1Nc1ccc2occc(=O)c2c1`, the inhibition entry (in [1]; in experiment [2]; in the experiment with BaF3; in [3]) was “Active” in each case. Besides, the inhibition result in [11], in [23] and in experiment [24] was “inactive” each time.

For `Cc1ccc(C(=O)Nc2cccc(C(F)(F)F)c2)cc1Nc1[nH]cnc2ncnc1-2`, the inhibition entry (in experiment [25]; in experiment [26]; in [27]; in experiment [2]; with BaF3; in [3]) was “Active” each time.
